Experimental data taken from patent US20210106612A1, “TARGET GENE TRANSCRIPTIONAL REPRESSION INHIBITOR THAT CAN BE DESIGNED IN A SEQUENCE-SPECIFIC MANNER, COMPOSITION CONTAINING SAME, AND USE THEREOF” (National University Corporation Chiba University, priority 2016, published 2021).

Tests used:
RKO cells [1] = experiment: genome-wide DNA methylation analysis (Infinium Human Methylation 450 BeadChip) in RKO cells; assay type: cell-based; conditions: for genome-wide methylation level: RKO cells, 0.5 μM AZA, 10 μM Im0 or Im3 under hypoxic conditions, FIG. 8; for genes whose methylation level was reduced by Im0 and Im3 in common, TSS±1 kb region / probes whose methylation level was reduced by Im0 and Im3 in common, TSS±1 kb region / probes whose methylation level was reduced by Im0 and Im3 in common, whole genome: β value <0.65 in Im0-treated and in Im3-treated cells of H75; for genes whose methylation was selectively reduced by this PIP, TSS±1 kb region / probes whose methylation was selectively reduced by this PIP, TSS±1 kb region / probes whose methylation was selectively reduced by this PIP, whole genome: β value <0.65 with this PIP and >0.8 with the other PIP on H75, 10 μM, 75 days, hypoxia after AZA
Protocol: (§1) The large intestine cancer cell line RKO cells were seeded at a density of 1×10^5 cells over a 6 cm dish and incubated for 24 hours. Subsequently, the culture solution was replaced with a culture solution containing 0.5 μM 5-aza-2′-deoxycytidine (AZA). The cultured cells were exposed to AZA over 2.4 hours. The cells were recovered on the 10th day, or cultured under hypoxic conditions as mentioned below.
(§2) In order to culture the cells under hypoxic conditions, the cells were cultured for 8 days under continuous aeration conditions with humidified air containing 94% N2, 5% CO2 and 1% O2 in an incubator equipped with an O2 sensor and MCO-18M regulator (Sanyo Electric Co., Ltd., Osaka, Japan). The CO2 concentration was maintained by the internal CO2 concentration regulation mechanism. Subsequently, the AZA-treated cells were treated with 0.1% DMSO containing 10 μM Im0 or Im3 for 75 days. During this operation, the medium containing PIP was replaced every 5 days. The cells were subcultured at a density of 2×10^5 cells over a 6 cm dish when becoming confluent. The cells were recovered on the 0th day (H0, before hypoxia treatment) and the 75th day (H75).
Genome-wide DNA methylation analysis was conducted as follows: first, 500 ng of genomic DNA obtained from each sample was treated with bisulfite using Zymo EZ DNA Methylation Kit (Zymo Research Corp., Irvine, Calif., USA). Whole genome amplification, labeling, hybridization and scanning were performed according to manufacturers' manuals.
Methylation analysis was conducted using Infinium Human Methylation 450 BeadChip (Illumina, Inc.) for the whole genome or in a ±1 kb region of the transcription start site (TSS) of each gene. Specifically, the ratio of probes for methylated sequences to the total of the probes for methylated sequences and probes for nonmethylated sequences (in the present specification, referred to as a “β value”) was determined. The β value is 0.00 when no methylation is found in all CpG sites, and is 1.00 when all CpG sites are methylated.
First, genes with β value >0.8 in the negative control RKO cells were selected. Genes with β value <0.5 on HO and β value >0.8 in the presence of treatment with 0.1% DMSO on H75 were further selected from the selected genes.

RKO cells [2] = experiment: gene expression analysis by RNA deep sequencing (FPKM) in RKO cells; assay type: cell-based; conditions: 10 μM PIP, hypoxia after AZA, FIG. 8 right graphs
Protocol: as §1, §2
Next, the expression levels of particular genes were analyzed. An RNA library was prepared using TruSeq Stranded mRNA Sample Prep Kit (Illumina, Inc.) according to the manufacturer's manual. Deep sequencing was performed using Illumina HiSeq 1500 or NextSeq 500 platform. FASTQ reads were mapped using TopHat, and transcripts were assembled using Cufflinks. gene expression was expressed as FPKM (fragments per kilobase of exon per million reads mapped). The results were as shown in the right graphs of FIG. 8.

[3] = tested on: promoter region of the MLH1 gene; experiment: methylation of promoter region of MLH1 gene in RKO cells, pyrosequencing; assay type: cell-based
Protocol: 1.0×10^5 cells of the […] cells were seeded over a 6 cm dish and treated with a medium containing 5.0 μM 5-aza-2'-deoxycytidine (AZA) over 7 days from the next day. The medium was replaced with a fresh medium every 24 hours. The cells were treated with a medium containing 10 nM trichostatin A (TSA) on the 7th day and recovered on the 8th day. […] The cells of the 8th day were cultured under hypoxic conditions of 1% O2 and 5% CO2. The cells were treated with 0.1% DMSO containing 5 μM PIP1 or PIP2, recovered on the 0th day (R0), the 20th day (R20) and the 30th day ([…]), and examined for the degree of methylation in the region from -27 to -1 of the MLH1 gene by pyrosequencing. During the treatment with PIP, the medium containing PIP1 or PIP2 was replaced every 5 days, and the cells were subcultured when becoming confluent.

MLH1 gene = experiment: expression of mRNA of the MLH1 gene in RKO cells by RT-PCR; assay type: cell-based
[4] = tested on: FAM-labeled double-stranded oligo DNA of 15 base pairs including a region from −22 to −8 of the MLH1 gene; experiment: gel shift assay of binding to the target sequence; conditions: 1 μM double-stranded oligo DNA, 37° C. for 1 hour, FIG. 2A
Protocol: PIP1 was confirmed by gel shift assay to bind to the target sequence. FAM-labeled double-stranded oligo DNA of 15 base pairs including a region from −22 to −8 of the MLH1 gene (double-stranded oligo DNA obtained by annealing sequences of SEQ ID NOs: 2 and 3) was prepared (lower part of FIG. 2A). 1 μM double-stranded oligo DNA was mixed at an indicated final concentration with PIP1 or PIP2 dissolved in 10 μL of a reaction solution containing 10 mM Tris-HCl (pH 8.0) and 10% DMSO, followed by incubation at 37° C. for 1 hour. The obtained reaction product was electrophoresed using 20% polyacrylamide gel, and double-stranded DNA on the gel was visualized using LAS-3000 (Fujifilm Corp., Japan).

[5] = tested on: region from −27 to −1 of the MLH1 gene; experiment: in vitro methylation of MLH1 plasmid by CpG methyltransferase M.SssI, pyrosequencing; assay type: biochemical; conditions: varying concentrations of PIP1, M.SssI, FIG. 3C
Protocol: A region from −780 to +483 (SEQ ID NO: 1) of MLH1 was amplified from the genomic DNA of the RKO cells by PCR using primers of SEQ ID NOs: 6 and 7 to obtain a DNA fragment, which was then integrated into pGEM-T Easy vector (Promega Corp., Fitchburg, USA) according to the manufacturer's manual (see FIG. 3A). 1 μg of the obtained plasmid was incubated at 25° C. for 12 hours in varying concentrations of PIP1 or 40 μM of PIP2 and 1× NEB buffer solution 2 (New England Biolabs Inc., Ipswich, USA) to bind the pyrrole imidazole polyamide to the DNA. For a negative control, DMSO was added to the plasmid and incubated.
[…] of S-adenosylmethionine (New England Biolabs Inc.) and 4 units of CpG methyltransferase M.SssI (New England Biolabs Inc.) were added to each sample, and 5% DMSO was added thereto to adjust the amount to 20 μL. After incubation at 37° C. for 2 hours, the reaction was terminated by incubation at 65° C. for 20 minutes. The DNA was purified by ethanol precipitation and dissolved in 100 μL of 10 mM Tris-HCl (pH 8.0). Then, the degree of DNA methylation at various sites of the MLH1 gene was tested by pyrosequencing. The primers used were as described in the following table.

Molecule	genome-wide methylation level (RKO cells [1])	genes whose methylation level was reduced by Im0 and Im3 in common, TSS±1 kb region (RKO cells [1]) [genes]	probes whose methylation level was reduced by Im0 and Im3 in common, TSS±1 kb region (RKO cells [1]) [probes]	probes whose methylation level was reduced by Im0 and Im3 in common, whole genome (RKO cells [1]) [probes]	genes whose methylation was selectively reduced by this PIP, TSS±1 kb region (RKO cells [1]) [genes]	probes whose methylation was selectively reduced by this PIP, TSS±1 kb region (RKO cells [1]) [probes]	probes whose methylation was selectively reduced by this PIP, whole genome (RKO cells [1]) [probes]	gene expression of TCP11, LYPDS, STAR, LOC253573 and LOC100507573 (RKO cells [2])	gene expression of NOSTRIN, DSCR9, SLC22A25, OR3A4P and C1WTNF6 (RKO cells [2])	degree of DNA methylation in the region from −27 to −1 of the MLH1 gene on R20 and R30 ([3]; AZA or AZA+TSA pretreated RKO cells, hypoxic conditions 1% O2, 5 μM PIP, FIGS. 6A and 6B)	methylation in a −70 region, a −63 region, a +156 region, and a +171 region of the MLH1 gene ([3]; sites distant from the target site, hypoxic conditions, 5 μM PIP, FIG. 6E)	expression of mRNA of the MLH1 gene, which is reduced along with methylation (MLH1 gene; AZA+TSA-treated cells, hypoxic conditions, 5 μM PIP, FIGS. 6C and 6D)	binding to the target double-stranded DNA (band shift) [4]	inhibition of DNA methylation in the region from −27 to −1 of the MLH1 gene [5]	degree of methylation in the promoter region from −27 to −1 of the MLH1 gene after demethylation treatment ([3]; RKO cells, 5.0 μM AZA over 7 days, 10 nM TSA on the 7th day, FIG. 4A)	expression of mRNA of the MLH1 gene after demethylation treatment (MLH1 gene; RKO cells, 5.0 μM AZA over 7 days, 10 nM TSA on the 7th day, FIG. 4B)
Me-Py-Py-Py-Py-β-Dp [Im0]	methylation levels of some genes were drastically reduced	9	19	19	1110	2135	6099	maintained	–	–	–	–	–	–	–	–
Me-Py-Py-Im-Py-β-Dp [Im3]	methylation levels of genes as a whole were drastically reduced	9	19	19	254	450	1171	maintained	selectively maintained	–	–	–	–	–	–	–
CC(=O)Nc1cc(C(=O)Nc2cn(C)c(C(=O)NCCC(=O)Nc3cn(C)c(C(=O)Nc4cn(C)c(C(O)Nc5c[nH]c(C(=O)NCCCC(=O)Nc6cn(C)c(C(=O)Nc7cc(C(=O)NCCC(=O)Nc8cn(C)c(C(=O)Nc9cc(C(=O)Nc%10cc(C(=O)NCCC(=O)NCCCN(C)C)n(C)c%10)n(C)c9)n8)n(C)c7)n6)c5)n4)n3)n2)n(C)c1 (stereo not drawn) [PIP1, Ac-Py-Im-β-Im-Im-Py-γ-Im-Py-β-Im-Py-Py-β-Dp]	–	–	–	–	–	–	–	–	–	an increase in the degree of methylation was suppressed	suppress methylation	maintained	confirmed to bind to the target double-stranded DNA	inhibited DNA methylation in a concentration-dependent manner	–	–
Nc1ncn([C@H]2C[C@H](O)[C@@H](CO)O2)c(=O)n1 [AZA, 5-aza-2′-deoxycytidine, reference compound]	demethylated genome-wide	–	–	–	–	–	–	–	–	–	–	–	–	–	reduced	restored
